Measured values reported in patent publication US20110160440A1, “Cab Molecules” (GENENCOR INTERNATIONAL, INC., priority 2003, published 2011).

Key:
[1] = Treatment-related toxicity (weight loss, animal deaths) in LS174T SCID mouse study; assay type: in vivo, CB17-SCID mice; details: for weight loss: melphalan 10 mg/kg
Source text: (§1) Female CB17-SCID mice (8-10 weeks, Taconic Labs) were challenged subcutaneously (SC) with 2×10^6 LS174T cells suspended in serum free DMEM in a volume of 100 microliters (Medimmune ACUC protocol # ACF 037). When mean tumor volumes were approximately 100-150 mm^3, animals were randomly distributed into treatment groups. Animals without detectable tumors or excessively large tumors (volume >300 mm^3) were excluded.
Tumor-bearing animals received CAB1.2 in PBS intravenously (IV) at doses of 1 or 2.5 mg/kg in an injection volume of 100 microliters in PBS. C-Mel stored at −70° C. as a 100 mg/ml frozen solution in DMSO) was formulated fresh (15 mg/ml, in a 5:4 ratio of 0.1M Na bicarbonate:PBS) and administered at a dose of 150 mg/kg on an average weight basis, IV bolus, via the tail vein in an injection volume of 200 microliters to all treatment groups receiving prodrug. Melphalan was formulated fresh (2 mg/ml in 20% DMSO/PBS) and administered intraperitoneally in an injection volume of 100 microliters. Briefly, animals administered CAB1.2 at 2.5 mg/kg were administered C-Mel 18 or 36 hours after CAB1.2 treatment. Animals administered CAB1.2 at 1 mg/kg were administered C-Mel 24 hours after CAB1.2 treatment. Control groups were as follows: untreated, 2.5 mg/kg CAB1.2 alone, 10 mg/kg melphalan, C-Mel alone, 2.5 mg/kg P97ADEPT followed by C-Mel 18 hours later, 1.5 mg/kg Beta-lactamase (BLA, 1.5 mg/kg, which was equimolar to the 2.5 mg/kg CAB1.2 BLA concentrations used), followed by C-Mel 18 hours later. Treatments were repeated once weekly for 3 cycles. Tumor measurements (in millimeters) were taken twice weekly; the investigator measuring the tumors was blinded to the treatment groups.
(§2) Animals were monitored daily for general appearance, animal weights taken once weekly and tumor measurements taken twice weekly. Data was collected and mean tumor volumes for all treatment groups determined±SEM, and plotted for analysis (days post tumor challenge vs tumor volume).
The average weights of individual treatment groups taken on day 9, when the first dose of C-Mel was administered, was used as the baseline weight of tumor-bearing animals for weight loss determinations within each treatment group. […] One animal was lost at day 14 due to procedural error during treatment. Toxicity-related deaths were noted as follows: 2 animals found dead on day 27, 3 animals each found dead on days 30 and 34, for a total of 8/9 toxicity-related deaths on the study for the 18 hr CAB1.2/C-Mel treatment group. […] One animal was sacrificed on day 12 due to excessive necrosis at the tumor site. […]

[2] = tested on: LS174T human colorectal tumor; assay: Anti-tumor activity of CAB1.2 plus C-Mel in LS174T human colorectal model in SCID mice; assay type: in vivo, CB17-SCID mice
Source text: as §1
Tumor-bearing animals received CAB1.2 in PBS intravenously (IV) at doses of 1 or 2.5 mg/kg in an injection volume of 100 microliters in PBS. C-Mel stored at −70° C. as a 100 mg/ml frozen solution in DMSO) was formulated fresh (15 mg/ml, in a 5:4 ratio of 0.1M Na bicarbonate:PBS) and administered at a dose of 150 mg/kg on an average weight basis, IV bolus, via the tail vein in an injection volume of 200 microliters to all treatment groups receiving prodrug. Melphalan was formulated fresh (2 mg/ml in 20% DMSO/PBS) and administered intraperitoneally in an injection volume of 100 microliters. Briefly, animals administered CAB1.2 at 2.5 mg/kg were administered C-Mel 18 or 36 hours after CAB1.2 treatment. […]
as §2

In the case of N[C@@H](Cc1ccc(N(CCCl)CCCl)cc1)C(=O)O [Melphalan], the weight loss ([1]; day 16) is reported as 11%, the weight loss ([1]; day 24) is reported as 12.5% and the “toxicity-related deaths on the study” value ([1]; melphalan alone 10 mg/kg) is reported as 3/10. The animal deaths ([1]; melphalan at maximum tolerated dose (MTD)) was 30%, the “inhibition vs untreated control” value ([2]; day 34, melphalan 10 mg/kg intraperitoneally (MTD), once weekly 3 cycles) was 34% and the tumor regressions ([2]; melphalan 10 mg/kg treatment group) was “no tumor regressions occurred”.
